Earlier results in patent US10545077B2, “Solid phase microextraction coating” (JP SCIENTIFIC LIMITED, priority 2016, dated 2020).

Row | LogP | Structure (SMILES)
1 | 1.87 | CC(C)NCC(O)COc1ccc(COCCOC(C)C)cc1 (stereo not drawn) [Bisoprolol]
2 | 2.42 | CCCC1O[C@@H]2C[C@H]3[C@@H]4CCC5=CC(=O)C=C[C@]5(C)[C@H]4[C@@H](O)C[C@]3(C)[C@]2(C(=O)CO)O1 (stereo partly drawn) [Budesonide]
3 | 1.66 | C[C@]12C=CC(=O)C=C1CC[C@@H]1[C@@H]2[C@@H](O)C[C@@]2(C)[C@H]1CC[C@]2(O)C(=O)CO [Prednisolone]
